Test results reported in patent US20210276960A1, “INHIBITORS OF TISSUE TRANSGLUTAMINASE 2 (TG2) AND USES THEREOF” (Northwestern University, priority 2020, published 2021).

Experiments:
[1] = target: T1, His-tagged TG2 / biotinylated FN42 interaction (Homo sapiens, UniProt P21980); test: ELISA of the TG2-FN interaction; type: binding
T1 construct: made in house
T1 sequence (P21980 1-687): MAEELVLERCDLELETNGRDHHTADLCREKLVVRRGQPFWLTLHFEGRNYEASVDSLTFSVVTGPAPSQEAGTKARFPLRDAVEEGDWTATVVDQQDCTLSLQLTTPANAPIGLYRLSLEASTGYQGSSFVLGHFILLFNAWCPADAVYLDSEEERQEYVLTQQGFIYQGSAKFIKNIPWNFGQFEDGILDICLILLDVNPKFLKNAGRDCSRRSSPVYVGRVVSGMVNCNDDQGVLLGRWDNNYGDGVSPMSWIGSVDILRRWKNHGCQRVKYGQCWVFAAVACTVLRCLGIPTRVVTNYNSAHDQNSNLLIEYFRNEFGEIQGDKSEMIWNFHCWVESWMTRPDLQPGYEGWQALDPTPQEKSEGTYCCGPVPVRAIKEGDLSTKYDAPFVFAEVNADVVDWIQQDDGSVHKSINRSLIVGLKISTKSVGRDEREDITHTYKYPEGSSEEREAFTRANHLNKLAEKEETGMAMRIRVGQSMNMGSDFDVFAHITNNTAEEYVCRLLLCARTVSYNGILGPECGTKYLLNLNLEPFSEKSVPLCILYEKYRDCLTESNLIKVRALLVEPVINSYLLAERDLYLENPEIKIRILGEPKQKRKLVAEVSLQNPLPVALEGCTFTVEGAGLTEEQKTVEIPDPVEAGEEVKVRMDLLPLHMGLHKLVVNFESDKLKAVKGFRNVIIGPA
Procedure: Confirmation using ELISA: An independent ELISA validated inhibition of TG2/FN complex formation by SMIs^11. The ELISA assay measured the binding between His6-TG2 captured to the wells by anti-His antibodies and biotinylated FN42 detectable with streptavidin-HRP (FIG. 12A). […] Selected compounds (at concentrations between 5 and 10 μM) inhibited the ELISA signal by 29.7% to 69.5%^11.
ELISA measured the interaction between recombinant His tagged TG2 (rTG2-His) and the biotinylated 42 kD fragment of FN (FN42) which were expressed and purified, as previously described (Yakubov et al., 2014). Briefly, a mixture of 10 nMrTG2-His and selected SMIs or DMSO was added to 96 well plates pre-coated with monoclonal anti-His antibody (Roche, Indianapolis, Ind.; 1:6000). The mixture was incubated for 1 h at RT with 5 nM biotinylated FN42. After washing, wells were incubated with streptavidin-HRP (Cell Signaling, #3999; 1:2000). The reaction was developed with 3,3′,5,5′tetramethylbenzidine (TMB) substrate (BD Biosciences, #555214) and the optical density at […] was measured by using a BioTek microplate reader (Winooski, Vt., USA). Data shown are means±SEM of two independent experiments (n=6).

[2] = tested on: SKOV3 cells adhesion to FN; test: Solid phase adhesion assay to FN, SKOV3; type: cell-based
Procedure: Cells labeled with calcein AM (Life Technologies, #L3224) were seeded at a density of 4×10^4 cells in 96-well plates pre-coated with FN (5 μg/mL, Sigma, #F1141), and blocked using 1% BSA (Sigma, #A9647) in PBS in the presence of selected compounds diluted at the specified concentrations, in serum free media. After 45 minutes, unattached cells were washed using PBS containing 1 mM MgCl2(Sigma, #M8266) and adherent cells were quantified in a SpectraMaxGeminiXS fluorescence plate reader (Molecular Devices, Palo Alto, Calif.) at 530 nm wavelength. Experiments were performed inquadruplicate and repeated at least twice.

[3] = tested on: OVCAR5 cells; test: TIRF microscopy of β1 integrin distribution; type: cell-based, human; details: 1 μM or 5 μM, 1 h pre-treatment
Procedure: For assessing the potential effect of SMIs on 01 integrin distribution at the interface between cells and the FN matrix, OVCAR5 cells were treated for 1 h with either TG53 or MT-4 in serum-free media at 37° C., and then seeded onto FN-coated glass bottom microwell dishes (MatTek Corp. Ashland, Mass.) for 45 minutes at 37° C. Samples were fixed in PFA and blocked in 1% BSA. 01 integrin receptors were detected by using anti-01 integrin antibodies (clone P5D2, Chemicon, #MAB1959, 1:100) and AlexaFluor 568-conjugated anti-mouse secondary antibodies, while actin was labeled using Alexa Fluor 488-conjugated phalloidin. Cells were imaged with a Nikon Ti2 Microscope equipped with a Photometrics Prime 95B camera using a Nikon Plan Apo 100×1.49 NA TIRF objective.

[4] = tested on: integrin β1 on OVCAR5 cells; test: Flow cytometry of surface integrin β1, OVCAR5; type: cell-based, human; details: serial concentrations
Procedure: FIG. 32. Flow cytometry analysis of integrin 31 plasma membrane expression. […] OC cells were pre-incubated 1 h with serial dilutions of MT4 (as compared to TG53- and DMSO-treated cells), and left to attach for on either plastic (P) or fibronectin (FN) coated 6-well plates. Anti-integrin 31 antibodies (0.5 μg/mL) were used as control.

[5] = tested on: FAK phosphorylation in SKOV3 cells; test: Western blotting, FAK phosphorylation dose response; type: cell-based; details: increasing doses (TG53 8 to 16 μM), 2 hours after adhesion to FN
Procedure: FIG. 33. Dose response effects induced by TG2-FN inhibitors on FAK phosphorylation.
Lysates were separated by SDS-PAGE, transferred onto PVDF membranes (Bio-Rad), incubated with primary and secondary antibodies and developed by using SuperSignal™ West Femto Maximum Sensitivity Substrate and Pierce™ ECL Western Blotting Substrate, respectively (Thermo Scientific). Images were obtained by using the ImageQuant LAS 4000 mini-imager (GE Healthcare, Pittsburgh, Pa.). Densitometry analysis was performed using Quantity One software (Bio-Rad) and results were normalized to GAPDH loading controls. DMSO 0 min time point was considered as 1 for comparative analysis.

| Compound | binding mode (Lineweaver-Burk plot analysis) [1] | inhibition of ELISA signal ([1]; 5 μM) | Ki ([1]; saturation curves of FN42 with increasing TG53, read-out: inhibition constant Ki) | cell adhesion to FN ([2]; 25 μM, FIG. 13A) | inhibition of cell adhesion to FN, TG2 expressing vs AS-TG2 cells ([2]; 25 μM, SKOV3pcDNA3.1 vs SKOV3-ASTG2) | cell adhesion to FN, dose dependence and specificity ([2]; 1-25 μM, TG53 compared with TG288) | β1 integrin distribution at the interface with FN [3] | β1 integrin receptors at the plasma membrane [4] | FAK phosphorylation [5] | inhibition of rTG2-FN42 interaction relative to TG53 ([1]; 10 μM) | cell adhesion to FN, dose dependence ([2]; 2 μM-25 μM) | OC cells' adhesion to FN ([2]; FN 5 μg/mL, FIG. 2E) |
| --- | --- | --- | --- | --- | --- | --- | --- | --- | --- | --- | --- | --- |
| COc1ccc(Cl)cc1C(=O)Nc1ccc(Nc2nc(C)cc(N(C)C)n2)cc1 [TG53] | competes for the same binding site in TG2 as FN42 | 65% | 4.15 µM | inhibited cell adhesion | more pronounced in TG2 expressing SKOV3pcDNA3.1 cells | dose-dependent | modest displacement of integrin receptors towards the cell perimeter | did not show significant downregulation | attenuated |  |  |  |
| Cc1cc(N(C)C)nc(Nc2ccc(NC(=O)Cc3ccccc3)cc2)n1 [MT-4] |  |  |  |  |  |  | enhanced 31 integrin transposition towards the extreme edge of the cell | did not show significant downregulation | dose-dependent inhibition | slightly more potently than TG53 | dose-dependent inhibitory effect | potently blocked |
